# Source: patent US20240058464A1 (Fortis Therapeutics, Inc., priority 2021, published 2024)
# Where a SMILES comes first, the peptide text is derived from it. [ ]: non-standard residue; d: D form. The star is where a group is joined. dPhe(4-NHCONH2) = NC(=O)Nc1ccc(C[C@@H](N)C(=O)O)cc1; Dihydroorotyl(S) = O=C1C[C@@H](C(=O)*)NC(=O)N1; dPhe(4-Cl) = N[C@H](Cc1ccc(Cl)cc1)C(=O)O; Phe(4-NH2) = Nc1ccc(C[C@H](N)C(=O)O)cc1; d2Nal = N[C@H](Cc1ccc2ccccc2c1)C(=O)O; Lys(iPr) = CC(C)NCCCC[C@H](N)C(=O)O; d3Pal = N[C@H](Cc1cccnc1)C(=O)O
# System: CD46 expression
# Test: CD46 expression by RNA-sequencing in unpaired pre-treatment and post-treatment tumor biopsies
# Assay type: in vivo, human
# [1] = Breast Cancer, post minus pre, unpaired biopsies
# [2] = Breast Cancer, post vs pre, unpaired biopsies
# [3] = Breast Cancer, post-treatment biopsies, log2-transformed RNA-seq counts
# [4] = Non-Small Cell Lung Cancer, Post minus Pre, unpaired biopsies, log2-transformed counts
# [5] = Non-Small Cell Lung Cancer, post- vs pre-treatment unpaired biopsies
# [6] = Non-Small Cell Lung Cancer, post-treatment biopsies, unpaired, RNA-seq log2-transformed normalized counts
# [7] = Clear Cell Renal Cell Carcinoma, post minus pre, unpaired biopsies
# [8] = Clear Cell Renal Cell Carcinoma, post vs pre, unpaired biopsies
# [9] = Clear Cell Renal Cell Carcinoma, post-treatment biopsies, log2-transformed RNA-seq counts
# [10] = Endocrine Tumor, Post minus Pre, unpaired biopsies, log2-transformed counts
# [11] = Endocrine Tumor, post- vs pre-treatment unpaired biopsies
# [12] = Endocrine Tumor, post-treatment biopsies, unpaired, RNA-seq log2-transformed normalized counts
# [13] = Sarcoma, Post minus Pre, unpaired biopsies, log2-transformed counts
# [14] = Sarcoma, post- vs pre-treatment unpaired biopsies
# [15] = Sarcoma, post-treatment biopsies, unpaired, RNA-seq log2-transformed normalized counts
# [16] = Breast Cancer, Post minus Pre, unpaired biopsies, log2-transformed counts
# [17] = Breast Cancer, post- vs pre-treatment unpaired biopsies
# [18] = Breast Cancer, post-treatment biopsies, unpaired, RNA-seq log2-transformed normalized counts
# [19] = Colorectal Cancer, Post minus Pre, unpaired biopsies, log2-transformed counts
# [20] = Colorectal Cancer, post- vs pre-treatment unpaired biopsies
# [21] = Colorectal Cancer, post-treatment biopsies, unpaired, RNA-seq log2-transformed normalized counts
structure (smiles),measurement,setting,value
CCN1CCN(Cc2ccc(Nc3ncc(F)c(-c4cc(F)c5nc(C)n(C(C)C)c5c4)n3)nc2)CC1 [abemaciclib],CD46 expression diff,[1],−0.15
same,CD46 expression Percentage change,[2],−2.4%
same,CD46 expression Post,[3],6.33
CN(C)C/C=C/C(=O)Nc1cc2c(Nc3ccc(F)c(Cl)c3)ncnc2cc1O[C@H]1CCOC1 [afatinib],CD46 expression diff,[4],0.11
same,CD46 expression Percentage change,[5],1.7%
same,CD46 expression Post,[6],6.43
CCc1cc2c(cc1N1CCC(N3CCOCC3)CC1)C(C)(C)c1[nH]c3cc(C#N)ccc3c1C2=O [alectinib],CD46 expression diff,[4],−0.03
same,CD46 expression Percentage change,[5],−0.5%
same,CD46 expression Post,[6],6.18
CNC(=O)c1ccc(N2C(=S)N(c3cnc(C#N)c(C(F)(F)F)c3)C(=O)C23CCC3)cc1F [apalutamide],CD46 expression diff,"Prostate Cancer, Post minus Pre, unpaired biopsies, log2-transformed counts",−0.03
same,CD46 expression Percentage change,"Prostate Cancer, post- vs pre-treatment unpaired biopsies",−0.5%
same,CD46 expression Post,"Prostate Cancer, post-treatment biopsies, unpaired, RNA-seq log2-transformed normalized counts",6.14
CNC(=O)c1ccccc1Sc1ccc2c(/C=C/c3ccccn3)n[nH]c2c1 [axitinib],CD46 expression diff,[7],−0.29
same,CD46 expression Percentage change,[8],−5.1%
same,CD46 expression Post,[9],5.43
COc1cc2nccc(Oc3ccc(NC(=O)C4(C(=O)Nc5ccc(F)cc5)CC4)cc3)c2cc1OC [cabozantinib],CD46 expression diff,"Clear Cell Renal Cell Carcinoma, Post minus Pre, unpaired biopsies, log2-transformed counts",−0.12
same,CD46 expression Percentage change,"Clear Cell Renal Cell Carcinoma, post- vs pre-treatment unpaired biopsies",−2.1%
same,CD46 expression Post,"Clear Cell Renal Cell Carcinoma, post-treatment biopsies, unpaired, RNA-seq log2-transformed normalized counts",5.44
C[C@@H](Oc1cc(-c2cnn(C3CCNCC3)c2)cnc1N)c1c(Cl)ccc(F)c1Cl [crizotinib],CD46 expression diff,[4],0.16
same,CD46 expression Percentage change,[5],2.7%
CC(C)(C)c1nc(-c2cccc(NS(=O)(=O)c3c(F)cccc3F)c2F)c(-c2ccnc(N)n2)s1 [dabrafenib],CD46 expression diff,"Melanoma, Post minus Pre, unpaired biopsies, log2-transformed counts",0.11
same,CD46 expression Percentage change,"Melanoma, post- vs pre-treatment unpaired biopsies",2.0%
same,CD46 expression Post,"Melanoma, post-treatment biopsies, unpaired, RNA-seq log2-transformed normalized counts",5.42
CC(=O)N[C@H](Cc1ccc2ccccc2c1)C(=O)N[C@H](Cc1ccc(Cl)cc1)C(=O)N[C@H](Cc1cccnc1)C(=O)N[C@@H](CO)C(=O)N[C@@H](Cc1ccc(NC(=O)[C@@H]2CC(=O)NC(=O)N2)cc1)C(=O)N[C@H](Cc1ccc(NC(N)=O)cc1)C(=O)N[C@@H](CC(C)C)C(=O)N[C@@H](CCCCNC(C)C)C(=O)N1CCC[C@H]1C(=O)N[C@H](C)C(N)=O [degarelix] (Ac-[d2Nal][dPhe(4-Cl)][d3Pal]S[Phe(4-NH2)](Dihydroorotyl(S))[dPhe(4-NHCONH2)]L[Lys(iPr)]P[dA]-NH2),CD46 expression diff,"Prostate Cancer, post minus pre, unpaired biopsies",−0.29
same,CD46 expression Percentage change,"Prostate Cancer, post vs pre, unpaired biopsies",−4.6%
same,CD46 expression Post,"Prostate Cancer, post-treatment biopsies, log2-transformed RNA-seq counts",5.94
same,CD46 expression Pre,"Prostate Cancer, pre-treatment biopsies, log2-transformed RNA-seq counts",6.23
C#Cc1cccc(Nc2ncnc3cc(OCCOC)c(OCCOC)cc23)c1 [erlotinib],CD46 expression diff,[4],−0.04
same,CD46 expression Percentage change,[5],−0.6%
same,CD46 expression Post,[6],6.23
COc1cc([C@@H]2c3cc4c(cc3[C@@H](O[C@@H]3O[C@@H]5CO[C@@H](C)O[C@H]5[C@H](O)[C@H]3O)[C@H]3COC(=O)[C@H]23)OCO4)cc(OC)c1O [etoposide],CD46 expression diff,[10],0.11
same,CD46 expression Percentage change,[11],2.0%
same,CD46 expression Post,[12],5.79
same,CD46 expression diff,[4],0.10
same,CD46 expression Percentage change,[5],1.7%
same,CD46 expression Post,[6],5.98
same,CD46 expression diff,[13],0.30
same,CD46 expression Percentage change,[14],6.2%
same,CD46 expression Post,[15],5.13
CO[C@H]1C[C@@H]2CC[C@@H](C)[C@@](O)(O2)C(=O)C(=O)N2CCCC[C@H]2C(=O)O[C@H]([C@H](C)C[C@@H]2CC[C@@H](OCCO)[C@H](OC)C2)CC(=O)[C@H](C)/C=C(\C)[C@@H](O)[C@@H](OC)C(=O)[C@H](C)C[C@H](C)/C=C/C=C/C=C/1C [everolimus],CD46 expression diff,[16],0.09
same,CD46 expression Percentage change,[17],1.4%
same,CD46 expression Post,[18],6.46
CC(C)C[C@H](NC(=O)[C@@H](COC(C)(C)C)NC(=O)[C@H](Cc1ccc(O)cc1)NC(=O)[C@H](CO)NC(=O)[C@H](Cc1c[nH]c2ccccc12)NC(=O)[C@H](Cc1cnc[nH]1)NC(=O)[C@@H]1CCC(=O)N1)C(=O)N[C@@H](CCCNC(=N)N)C(=O)N1CCC[C@H]1C(=O)NNC(N)=O [goserelin],CD46 expression diff,[16],0.00
same,CD46 expression Percentage change,[17],−0.1%
same,CD46 expression Post,[18],6.38
CS(=O)(=O)CCNCc1ccc(-c2ccc3ncnc(Nc4ccc(OCc5cccc(F)c5)c(Cl)c4)c3c2)o1 [lapatinib],CD46 expression diff,[16],−0.08
same,CD46 expression Percentage change,[17],−1.2%
same,CD46 expression Post,[18],6.22
COc1cc2nccc(Oc3ccc(NC(=O)NC4CC4)c(Cl)c3)c2cc1C(N)=O [lenvatinib],CD46 expression diff,"Thyroid Cancer, Post minus Pre, unpaired biopsies, log2-transformed counts",−0.02
same,CD46 expression Percentage change,"Thyroid Cancer, post- vs pre-treatment unpaired biopsies",−0.4%
same,CD46 expression Post,"Thyroid Cancer, post-treatment biopsies, unpaired, RNA-seq log2-transformed normalized counts",5.82
N[C@@H](Cc1cc(I)c(Oc2cc(I)c(O)c(I)c2)c(I)c1)C(=O)O [levothyroxine],CD46 expression diff,"Non-Small Cell Lung Cancer, post minus pre, unpaired biopsies",−0.17
same,CD46 expression Percentage change,"Non-Small Cell Lung Cancer, post vs pre, unpaired biopsies",−2.9%
same,CD46 expression Post,"Non-Small Cell Lung Cancer, post-treatment biopsies, log2-transformed RNA-seq counts",5.87
O=S(=O)(O)CCS [mesna],CD46 expression diff,"Sarcoma, post minus pre, unpaired biopsies",−0.16
same,CD46 expression Percentage change,"Sarcoma, post vs pre, unpaired biopsies",−3.2%
same,CD46 expression Post,"Sarcoma, post-treatment biopsies, log2-transformed RNA-seq counts",4.88
CN(C)C(=N)N=C(N)N [metformin],CD46 expression diff,[19],0.27
same,CD46 expression Percentage change,[20],4.2%
same,CD46 expression Post,[21],6.70
same,CD46 expression diff,[4],0.03
same,CD46 expression Percentage change,[5],0.5%
same,CD46 expression Post,[6],6.07
CN(Cc1cnc2nc(N)nc(N)c2n1)c1ccc(C(=O)N[C@@H](CCC(=O)O)C(=O)O)cc1 [methotrexate],CD46 expression diff,"Bladder Cancer, post minus pre, unpaired biopsies",−0.25
same,CD46 expression Percentage change,"Bladder Cancer, post vs pre, unpaired biopsies",−4.0%
same,CD46 expression Post,"Bladder Cancer, post-treatment biopsies, log2-transformed RNA-seq counts",5.88
same,CD46 expression diff,[16],0.07
same,CD46 expression Percentage change,[17],1.2%
same,CD46 expression Post,[18],6.32
C[C@H]1C[C@@H]2[C@H]([C@@H](O)C[C@@]3(C)[C@H]2CC[C@]3(O)C(=O)CO)[C@@]2(C)C=CC(=O)C=C12 [methylprednisolone],CD46 expression diff,[16],0.31
same,CD46 expression Percentage change,[17],5.0%
same,CD46 expression Post,[18],6.49
same,CD46 expression diff,[4],−0.04
same,CD46 expression Percentage change,[5],−0.6%
same,CD46 expression Post,[6],6.16
CO[C@@]12[C@H](COC(N)=O)C3=C(C(=O)C(C)=C(N)C3=O)N1C[C@@H]1N[C@@H]12 [mitomycin],CD46 expression diff,[19],0.23
same,CD46 expression Percentage change,[20],3.9%
same,CD46 expression Post,[21],5.93
NC(=O)c1cccc2cn(-c3ccc([C@@H]4CCCNC4)cc3)nc12 [niraparib],CD46 expression Percentage change,in vivo,0.1%
same,CD46 expression Post,in vivo,5.72
same,CD46 expression diff,in vivo,0.00
C[C@@H](O)[C@@H]1NC(=O)[C@H](CCCCN)NC(=O)[C@@H](Cc2c[nH]c3ccccc23)NC(=O)[C@H](Cc2ccccc2)NC(=O)[C@@H](NC(=O)[C@H](N)Cc2ccccc2)CSSC[C@@H](C(=O)N[C@H](CO)[C@@H](C)O)NC1=O [octreotide],CD46 expression diff,[10],−0.05
same,CD46 expression Percentage change,[11],−0.9%
same,CD46 expression Post,[12],5.59
Cc1ccc(Nc2nccc(N(C)c3ccc4c(C)n(C)nc4c3)n2)cc1S(N)(=O)=O [pazopanib],CD46 expression diff,[7],−0.22
same,CD46 expression Percentage change,[8],−4.0%
same,CD46 expression Post,[9],5.37
same,CD46 expression diff,[13],−0.10
same,CD46 expression Percentage change,[14],−1.9%
same,CD46 expression Post,[15],5.03
CN(C)C(=O)c1cc2cnc(Nc3ccc(N4CCNCC4)cn3)nc2n1C1CCCC1 [ribociclib],CD46 expression diff,[1],−0.17
same,CD46 expression Percentage change,[2],−2.6%
same,CD46 expression Post,[3],6.30
